These results are taken from patent publication US6191155A (priority 1997, dated 2001).

The subject of the first series is Leptosphaeria nodorum. Description: Leptosphaeria nodorum test (wheat)/protective. Particulars: application rate 250 g/ha; protective; evaluation 10 days after inoculation. It is filed as in vivo, Leptosphaeria nodorum (on wheat). As for the experimental part:
Leptosphaeria nodorum Test (Wheat)/Protective
(§1) Solvent: 10 parts by weight of N-methyl-pyrrolidone
(§2) Emulsifier: 0.6 parts by weight of alkylaryl polyglycol ether
(§3) To produce a suitable preparation of active compound, 1 part by weight of active compound is mixed with the stated amounts of solvent and emulsifier, and the concentrate is diluted with water to the desired concentration.
To test for protective activity, young plants are sprayed with the preparation of active compound at the stated application rate. After the spray coating has dried on, the plants are sprayed with a spore suspension of Leptosphaeria nodorum. The plants remain in an incubation cabin at 20° C. and 100% relative atmospheric humidity for 48 hours.
The plants are placed in a greenhouse at a temperature or approximately 15° C. and a relative atmospheric humidity of 80%.
Evaluation is carried out 10 days after the inoculation. 0% means an efficacy which corresponds to that of the control, while an efficacy of 100% means that no infection is observed.
Molecule `O=C(OCCc1ccc(Cl)cc1)c1snc(Cl)c1Cl` [Example 13] had an Efficacy in % of 81%.

Test system in another series: not listed separately
The series is described as follows: log P by HPLC (EEC Directive 79/831 Annex V.A8). Particulars: gradient method, acetonitrile/0.1% of aqueous phosphoric acid. It is filed as physicochemical. How it is done: *) The log P values were determined in accordance with EEC Directive 79/831
Annex V.A8 by HPLC (gradient method, acetonitrile/0.1% of aqueous
As usually defined, the chromatographic logP is lipophilicity estimated from chromatographic retention. A lower chromatographic logP goes with a more hydrophilic compound. Regarding `CCN(CC)CCOC(=O)c1snc(Cl)c1Cl` [Example 2], the chromatographic logP amounted to 1.37. On the same count and under the same terms, next, `O=C(OCCOCCN1CCCC1)c1snc(Cl)c1Cl` [Example 3]: 1.36; `O=C(OCCOc1cccc(C(F)(F)F)c1)c1snc(Cl)c1Cl` [Example 4]: 4.71. The same measure, in the same setting: next, `O=C(OCCOCc1ccccc1)c1snc(Cl)c1Cl` [Example 5]: 4.12; `COC(=O)c1ccc(OCCOC(=O)c2snc(Cl)c2Cl)cc1` [Example 6]: 3.91. As for `CCN(CCOCCOC(=O)c1snc(Cl)c1Cl)c1ccccc1` [Example 7], the chromatographic logP was 2.6.

Regarding `O=C(OCCOCC(F)(F)F)c1snc(Cl)c1Cl` [Example 8], the chromatographic logP came out at 3.55.

Regarding `O=C(OCCOC(CF)CF)c1snc(Cl)c1Cl` [Example 9], the chromatographic logP turned out to be 3.11. With `O=C(OCCOc1ccc(Cl)cc1)c1snc(Cl)c1Cl` [Example 10], the chromatographic logP came out at 4.58. On the same count and under the same terms, to `O=C(OCCn1nnc2ccccc21)c1snc(Cl)c1Cl` [Example 11] belongs 2.81. On the same count and under the same terms, next, `CSC(=O)c1snc(Cl)c1Cl` [Example 15]: 3.46; `CC(C)CSC(=O)c1snc(Cl)c1Cl` [Example 17]: 5.16. On the same count and under the same terms, next, `CCCSC(=O)c1snc(Cl)c1Cl` [Example 18]: 4.66; `Cc1ccc(C(C)OC(=O)c2snc(Cl)c2Cl)cc1` (centres unmarked) [Example 19]: 5.02; `O=C(OCC(O)CO)c1snc(Cl)c1Cl` (centres unmarked) [Example 20]: 1.49.

The test system of a further series is fungi.
Assay: not given
Conditions: cited from earlier work.
Take `CC(C)OC(=O)c1snc(Cl)c1Cl` [isopropyl 3,4-dichloro-isothiazol-5-carboxylate]: the “activity in controlling fungi” value is “good”.

In the next series the test system is Plutella xylostella. Description: Plutella test (caterpillars of the diamond-back moth on cabbage leaves). It is filed as in vivo, Plutella xylostella (on Brassica oleracea). Particulars: 168 h, active compound concentration 0.1 % by weight, after 7 days, read-out: Kill in % after 7d. How it is done:
Solvent: 7 parts by weight of dimethylformamide
Emulsifier: 1 part by weight of alkylaryl polyglycol ether
as §3
Cabbage leaves (Brassica oleracea) are treated by being dipped into the preparation of active compound of the desired concentration and are populated with caterpillars of the diamond-back moth (Plutella xylostella) while the leaves are still moist.
After 7 days, the kill is determined. An efficacy of 100% means that all caterpillars have been killed, while an efficacy of 0% means that none of the caterpillars have been killed.
`O=C(OCCOCCN1CCCC1)c1snc(Cl)c1Cl` [Example 3]: the mortality at 0.1 % strength was found to be 100%. `O=C(OCc1cccnc1)c1snc(Cl)c1Cl` [Example 12]: the mortality at 0.1 % strength turned out to be 100%.

For another series, the system named is Erysiphe graminis f.sp. hordei. Description: Erysiphe test (barley)/protective. It is filed as in vivo, Erysiphe graminis f.sp. hordei (on barley). Particulars: active compound concentration 250 (head: % by weight); protective; 7 days after inoculation; 100% = no infection. How it is done:
Erysiphe Test (Barley)/Protective
as §1, §2, §3
To test for protective activity, young plants are sprayed with the preparation of active compound at the stated application rate.
After the spray coating has dried on, the plants are dusted with spores of Erysiphe graminis f.sp. hordei.
The plants are placed in a greenhouse at a temperature of approximately 20° C. and a relative atmospheric humidity of approximately 80% to promote the development of mildew pustules.
Evaluation is carried out 7 days after the inoculation. 0% means an efficacy which corresponds to that of the control, while an efficacy of 100% means that no infection is observed.
For the molecule `O=C(OCCOCCN1CCCC1)c1snc(Cl)c1Cl` [Example 3], the Efficacy in % is recorded as 100%.
